Data: the supplement of paper PMC10307832

What was measured:
Assay in all cases: relative viability (nuclei count vs DMSO), 5 days (fraction); higher = more cells survive
AZD5582 + Alpelisib = compound: C[C@@H](C(=O)N[C@@H](C1CCCCC1)C(=O)N2CCC[C@H]2C(=O)N[C@@H]3[C@@H](CC4=CC=CC=C34)OCC#CC#CCO[C@@H]5CC6=CC=CC=C6[C@@H]5NC(=O)[C@@H]7CCCN7C(=O)[C@H](C8CCCCC8)NC(=O)[C@H](C)NC)NC [AZD5582] + Cc1nc(NC(=O)N2CCC[C@H]2C(N)=O)sc1-c1ccnc(C(C)(C)C(F)(F)F)c1 [Alpelisib] (partner 2 µM)
In short: (§1)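 Lung cancer cell lines in 1536-well plates got either a single drug or a fixed anchor-drug dose together with five library-drug doses (not always all listed) in √10 steps, by pin tool, on the day after seeding. Nuclei were counted after 5 days, and relative viability is the treated-to-vehicle ratio of nuclei counts. Values are medians of duplicate plates.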

AZD5582 + Olaparib = compound: C[C@@H](C(=O)N[C@@H](C1CCCCC1)C(=O)N2CCC[C@H]2C(=O)N[C@@H]3[C@@H](CC4=CC=CC=C34)OCC#CC#CCO[C@@H]5CC6=CC=CC=C6[C@@H]5NC(=O)[C@@H]7CCCN7C(=O)[C@H](C8CCCCC8)NC(=O)[C@H](C)NC)NC [AZD5582] + O=C(c1cc(Cc2n[nH]c(=O)c3ccccc23)ccc1F)N1CCN(C(=O)C2CC2)CC1 [Olaparib] (partner 8 µM)
In short: as §1

[1] = compound: Cn1nnc2c(C(N)=O)ncn2c1=O [Temozolomide] + CC(C)C[C@H](NC(=O)[C@H](Cc1ccccc1)NC(=O)c1cnccn1)B(O)O [Bortezomib] (partner 0.002 µM)
In short: as §1

[2] = compound: Cn1nnc2c(C(N)=O)ncn2c1=O [Temozolomide] + C[C@]1(O)C[C@@H](c2nc(-c3ccc4ccc(-c5ccccc5)nc4c3)c3c(N)nccn32)C1 [Linsitinib] (partner 1 µM)
In short: as §1

Cell Line	relative viability (AZD5582 + Alpelisib; first compound 0.001581 µM)	relative viability (AZD5582 + Alpelisib; first compound 0.005 µM)	relative viability (AZD5582 + Alpelisib; first compound 0.01581 µM)	relative viability (AZD5582 + Alpelisib; first compound 0.05 µM)	relative viability (AZD5582 + Olaparib; first compound 0.001581 µM)	relative viability (AZD5582 + Olaparib; first compound 0.005 µM)	relative viability (AZD5582 + Olaparib; first compound 0.01581 µM)	relative viability (AZD5582 + Olaparib; first compound 0.05 µM)	relative viability ([1]; first compound 0.2 µM)	relative viability ([1]; first compound 0.6325 µM)	relative viability ([1]; first compound 2 µM)	relative viability ([1]; first compound 6.325 µM)	relative viability ([1]; first compound 20 µM)	relative viability ([2]; first compound 0.2 µM)	relative viability ([2]; first compound 0.6325 µM)	relative viability ([2]; first compound 2 µM)	relative viability ([2]; first compound 6.325 µM)	relative viability ([2]; first compound 20 µM)
NCI-H1734	0.729	0.761	0.705	0.903	0.569	0.59	0.615	0.746	1.07	0.871	0.963	0.771	0.949	0.824	0.811	0.986	0.865	0.845
NCI-H1755	0.875	0.918	0.874	0.996	0.843	0.966	0.938	0.939	0.961	0.952	1.01	0.897	0.84	1.01	0.98	1.04	1	0.801
NCI-H1792	0.616	0.738	0.651	0.939	0.343	0.466	0.337	0.409	0.969	0.988	1.01	0.641	0.953	0.363	0.586	0.498	0.475	0.481
NCI-H1915	1.01	1.06	1.09	1.13	0.279	0.244	0.25	0.226	0.972	0.96	0.933	0.729	0.354	1.15	1.02	0.969	0.711	0.402
NCI-H1975	0.725	0.894	0.611	0.964	0.862	1.06	0.764	0.951	0.462	0.418	0.384	0.413	0.298	0.961	1.01	0.922	0.903	0.9
NCI-H1993	0.706	0.669	0.647	0.671	0.982	1.16	1.06	1.12	0.944	1.19	1.14	1.07	0.736	0.725	0.727	0.698	0.744	0.708
NCI-H2009	1.12	1.15	1.17	1.18	0.636	0.703	0.706	0.751	1.19	1	1.19	0.961	1.04	1.2	1.22	1.3	1.2	1.22
NCI-H2023	0.562	0.538	0.567	0.609	0.401	0.381	0.48	0.412	1.01	0.905	1.05	0.933	0.855	0.567	0.7	0.665	0.712	0.662
NCI-H2085	1	0.987	0.928	1.01	0.842	0.903	0.726	0.733	0.992	1.26	1.04	1.01	0.888	0.865	0.919	0.788	0.994	0.84
NCI-H2087	1.08	1.01	1.13	1.19	0.442	0.604	0.607	0.719	0.973	0.918	0.738	0.681	0.948	1.09	0.862	1.03	0.826	0.949
NCI-H2126	0.785	0.766	0.695	0.762	0.897	0.868	0.861	0.745	1.13	1.15	1.1	1.1	1.08	0.691	0.712	0.646	0.768	0.692
NCI-H2228	0.776	0.625	0.924	0.365	0.629	0.61	0.618	0.333	1.15	1.03	1.02	0.956	1.02	0.794	0.705	0.693	0.636	0.822
NCI-H2347	0.901	1.05	0.975	0.991	0.496	0.624	0.581	0.525	1.34	1.05	0.995	0.836	1.07	1.08	1.11	1	0.859	0.964
NCI-H2405	0.913	1.07		0.933	0.83	0.875	0.833	0.842	1.07	0.976	1.01	0.715	0.954	0.707	0.924	1.09	0.858	0.95
NCI-H3122	0.774	0.858	0.836	0.307	0.634	0.557	0.641	0.537	1.01	1.1	1.04	0.937	1.04	0.963	1.02	1.02	0.985	0.98
PC-3 [JPC-3]	0.889	0.966	0.999	0.703	0.914	0.855	1.09	0.536	0.844	0.781	0.874	0.791	0.418	0.932	0.975	0.941	0.987	0.499
PC-14	0.834	1.03	0.927	0.971	0.183	0.148	0.306	0.136	0.94	0.872	0.943	0.83	1.04	0.96	0.942	0.984	0.871	0.837
